Experiments:
[1] = test system: dopamine release from synaptosomes of the striatal area of rat brain; type: biochemical, rat (Sprague-Dawley); details: for Dopamine Release Emax (% nicotine): rat, striatal synaptosomes
[2] = test system: ganglionic-type neuronal nicotinic receptors (rat pheochromocytoma clonal line PC 12); assay: Interaction with ganglia: 86Rb+ efflux in PC12 cells; type: cell-based

| SMILES | EC50 [1] [µM] | Dopamine Release Emax (% nicotine) [1] [% nicotine] | Ganglion Effect (% nicotine) [2] [% nicotine] |
| --- | --- | --- | --- |
| NCC/C=C/c1cncnc1.O=C(O)/C=C/C(=O)O [Sample No. 1, (E)-4-(5-pyrimidinyl)-3-butene-1-amine monofumarate] | 4.36 | 113 | – |
| CNCC/C=C/c1cncnc1 [Sample No. 2, (E)-N-methyl-4-(5-pyrimidinyl)-3-butene-1-amine] | 5.8 | 77 | 1 |
| COc1cncc(/C=C/CCN)c1 [Sample No. 3, (E)-4-[3-(5-methoxypyridin)yl]-3-butene-1-amine monofumarate] | 4 | 95 | 0 |
| CNCCC#Cc1cccnc1 [Sample No. 4, N-Methyl-4-(3-pyridinyl)-3-butyne-1-amine] | 8.35 | 87 | 59 |
| CNCC/C=C\c1cccnc1 [Sample No. 5, (Z)-metanicotine] | 11.3 | 88 | – |
| CNCC/C=C/c1ccc(C)nc1 [Sample No. 6, (E)-N-methyl-4-[3-(6-methylpyrindin)yl]-3-butene-1-amine] | 0.219 | 60 | 4 |
| CNCCCCc1cccnc1 [Sample No. 7, N-methyl-(3-1-pyridinyl)-butane-1-amine] | – | 72 | 31 |
| CNCC/C=C/c1cccnc1 [Sample No. 8, (E)-metanicotine] | 1.47 | 80 | – |
| CN1CCC[C@H]1c1cccnc1 [Sample No. C-1, (S)-(-)-nicotine, reference compound] | 0.115 | – | – |
